Read-outs that look alike come from different tables or passages of the source.
Tests used:
[1] = tested on: A. baumannii 14B00100 (Acinetobacter sp., BCRC number 14B0100)
Outline: (§1)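 Broth microdilution per CLSI in Müller-Hinton broth and modified LYM broth (pH 7.4; variants with 300–50 mM NaCl, 2.5–0.5 mM MgCl2, or pH 6.5–4.5). Inoculum 5 × 10^5 CFU/mL; peptides at final 50 to 0.78 µg/mL, twofold series. MIC reported; three independent repeats.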

[2] = tested on: A. baumannii 14B0091 (Acinetobacter sp., BCRC number 14B0091)
Outline: as §1

[3] = tested on: Escherichia coli (ATCC 25922)
Outline: as §1

[4] = tested on: Pseudomonas aeruginosa Migula (ATCC 27853)
Outline: as §1

[5] = tested on: S. aureus ATCC 33591
Outline: as §1

[6] = tested on: S. aureus ATCC 33593
Outline: as §1

[7] = tested on: Gram-negative bacteria; assay: Geometric mean MIC and therapeutic index, Gram-negative bacteria; type: cell-based; settings: Gram-negative bacteria
Experimental: (§2) In this study, we aimed to investigate the potential of W5K series peptides for therapeutic use. To evaluate their efficacy for antibacterial therapy, we used the Therapeutic Index (TI) as a measure of their cell selectivity. The TI was calculated as the ratio of the concentration causing 10% hemolysis of human red blood cells (HC10) to the geometric mean minimum inhibitory concentration (GM) of the peptides against both Gram-negative and Gram-positive bacteria. This parameter was used to quantitatively assess the balance between antibacterial potency and cytotoxicity among the W5K derivatives.
(§3) The antibacterial activities of the peptides in Müller-Hinton (MH) broth and modified LYM broth were determined using the standard broth microdilution method as per Clinical and Laboratory Standards Institute (CLSI) guidelines. The LYM broth was prepared with specific components and adjusted to different conditions, including varying concentrations of NaCl and MgCl2, and different pH levels. To prepare the LYM broth, 5.4 mM KCl, 5.6 mM Na2HPO4, 0.5 mM MgSO4, and 1.0 mM sodium citrate were added. Additionally, 0.4 mg of ZnCl2, 2.0 mg of FeCl3·6H2O, 0.1 mg of CuSO4·5H2O, 0.1 mg of MnSO4·H2O, 0.1 mg of Na2B4O7∙10H2O, 700 mg of amino acid mixtures without tryptophan (Takara Bio Inc., San Jose, CA, USA), and 20 mg of L-tryptophan were added per liter of medium. The pH was adjusted to 7.4, and a vitamin mixture (100X, Sigma) and glucose concentration of 2% were added. For different conditions of LYM broth, NaCl concentrations of 300, 200, 150, and 50 mM, MgCl2 concentrations of 2.5, 1.5, and 0.5 mM, and pH levels of 6.5, 5.5, and 4.5 were adjusted. Bacterial strains were incubated in MH broth overnight, regrown, and diluted to a final concentration of 5 × 10^5 CFU/mL. Peptides were added to each well at final concentrations of 50, 25, 12.5, 6.25, 3.13, 1.56, and 0.78 µg/mL, and 99 µL of diluted microbes was loaded into each well of a polypropylene 96-well plate. […] The Morpheus HeatMap software (https://software.broadinstitute.org/morpheus/) was used to display MIC values on a color scale. All experiments were independently repeated three times.

[8] = tested on: Both Gram-positive and -negative bacteria; assay: Geometric mean MIC, therapeutic index and fold changes of MIC, whole panel of strains; type: cell-based; settings: for weakening of antibacterial efficacy (MIC): LYM broth
Experimental: as §2, §3

[9] = LYM broth, 0 mM NaCl, 16 h, 37 °C
[10] = LYM broth, 50 mM NaCl, 16 h, 37 °C
[11] = LYM broth, 100 mM NaCl, 16 h, 37 °C
[12] = LYM broth, 200 mM (NaCl), 16 h, 37 °C
[13] = LYM broth, 300 mM (NaCl), 16 h, 37 °C
[14] = MH broth, 5 × 10^5 CFU/mL, 16 h, 37 °C, repeated three times

Ac-KKKWRKWLKWLAK-NH2 [Peptide W5K12]
2.4 µg/mL: GM G− (geometric mean of the MIC values) ([7]; MH broth, MIC >50 µg/mL counted as 100 µg/mL)
17.6: Therapeutic Index (TI) G− ([7]; HC10/GM)
12.5 µg/mL: MIC [3, 13] | MIC [4, 13] | MIC [5, 13] | MIC [6, 13]
up to 4 fold: weakening of antibacterial efficacy (MIC) ([8]; 300 mM NaCl)
3.4 µg/mL: GM G−/+ (geometric mean of the MIC values) ([8]; Both Gram-positive and -negative bacteria, MH broth, MIC >50 µg/mL counted as 100 µg/mL)
3.13 µg/mL: MIC ([1]; LYM broth, 2.5 mM MgCl2) | MIC ([1]; LYM broth, pH 4.5) | MIC ([1]; LYM broth, pH 5.5) | MIC [1, 14] | MIC [2, 13] | MIC ([2]; LYM broth, pH 4.5) | MIC ([2]; LYM broth, pH 5.5) | MIC ([3]; LYM broth, 0.5 mM MgCl2) | MIC ([3]; LYM broth, 1.5 mM MgCl2) | MIC ([3]; LYM broth, 2.5 mM MgCl2) | MIC [3, 10] | MIC [3, 11] | MIC [3, 14] | MIC ([4]; LYM broth, 2.5 mM MgCl2) | MIC [4, 11] | MIC [4, 14] | MIC [5, 9] | MIC ([5]; LYM broth, 0.5 mM MgCl2) | MIC ([5]; LYM broth, 1.5 mM MgCl2) | MIC ([5]; LYM broth, 2.5 mM MgCl2) | MIC [5, 10] | MIC [5, 11] | MIC ([5]; LYM broth, pH 4.5) | MIC ([5]; LYM broth, pH 5.5) | MIC ([5]; LYM broth, pH 6.5) | MIC [6, 9] | MIC ([6]; LYM broth, 0.5 mM MgCl2) | MIC ([6]; LYM broth, 1.5 mM MgCl2) | MIC ([6]; LYM broth, 2.5 mM MgCl2) | MIC [6, 10] | MIC [6, 11] | MIC ([6]; LYM broth, pH 4.5)
1.56 µg/mL: MIC [1, 9] | MIC ([1]; LYM broth, 0.5 mM MgCl2) | MIC ([1]; LYM broth, 1.5 mM MgCl2) | MIC [1, 10] | MIC [1, 11] | MIC [1, 12] | MIC [1, 13] | MIC ([1]; LYM broth, pH 6.5) | MIC [2, 9] | MIC ([2]; LYM broth, 0.5 mM MgCl2) | MIC ([2]; LYM broth, 1.5 mM MgCl2) | MIC ([2]; LYM broth, 2.5 mM MgCl2) | MIC [2, 10] | MIC [2, 11] | MIC [2, 12] | MIC ([2]; LYM broth, pH 6.5) | MIC [2, 14] | MIC [3, 9] | MIC ([3]; LYM broth, pH 4.5) | MIC ([3]; LYM broth, pH 5.5) | MIC ([3]; LYM broth, pH 6.5) | MIC [4, 9] | MIC ([4]; LYM broth, 0.5 mM MgCl2) | MIC ([4]; LYM broth, 1.5 mM MgCl2) | MIC [4, 10] | MIC ([4]; LYM broth, pH 4.5) | MIC ([4]; LYM broth, pH 5.5) | MIC ([4]; LYM broth, pH 6.5) | MIC ([6]; LYM broth, pH 5.5) | MIC ([6]; LYM broth, pH 6.5)
up to 2 fold: weakening of antibacterial efficacy (MIC) ([8]; MgCl2 rising above 0.5 mM)
12.4: Therapeutic Index (TI) G−/+ ([8]; HC10/GM, both Gram-positive and -negative bacteria)
6.25 µg/mL: MIC [3, 12] | MIC [4, 12] | MIC [5, 12] | MIC [5, 14] | MIC [6, 12] | MIC [6, 14]
